Measurements as given in PMC5048153 (Scientific Reports, 2016).
Structures can show the parent of a compound that is named as a salt.

Tests used:
HEK293 cells = experiment: Cytotoxicity on HEK293 cells (MTT); type: cell-based, human; conditions: after treatment; for inhibition at 100 µM: Homo sapiens, HEK293, 100μM, read-out: IR (inhibitory rate) HEK293; for IR (inhibitory rate) HEK293: 100μM
Protocol: (§1) Human normal hepatic L02 cells, human embryonic kidney cell line 293 cells (HEK293) and Rattus myoblast cell line H9C2 cells were respectively seeded in 96-well plates at a density of 4 × 10^3 cells per well and cultured in the 1640 or DMEM medium, with the supplement of 10% fetal bovine serum, penicillin (100 unit/ml), streptomycin (100 μg/ml) in a humidified incubator with 5% CO2 for 24 h. […] The cytotoxicities of the compounds were evaluated by MTT method.

L02 cells = experiment: Cytotoxicity on L02 cells (MTT); type: cell-based, human; conditions: after treatment; for inhibition at 100 µM: Homo sapiens, L02, 100μM, read-out: IR (inhibitory rate) L02; for IR (inhibitory rate) L02: 100μM
Protocol: as §1

[1] = system: corticosterone-injured PC12 cells; experiment: Protective effects on corticosterone-injured PC12 cells (MTT); type: cell-based, rat; set-up: key to PR (protection rate), Table S1: compounds did not shown protection effects on corticosterone-injured PC12 cells; conditions: 24 h after treatment; for PR (protection rate), Table S1: 1.25µM; for PR (protection rate): 200 μM corticosterone
Protocol: PC12 cells were purchased from American Type Culture Collection and were maintained in DMEM medium supplemented with penicillin (100 unit/ml), streptomycin (100 μg/ml), 5% fetal bovine serum (FBS), and 10% horse serum at 37 °C in humidified atmosphere with 5% CO2. The detailed procedures were performed referring to the reported literatures. Briefly, PC12 cells of logarithmic growth phase were collected, re-suspended and then seeded at a density of 1 × 10^5 cells per well in 96-well plates and cultured in the DMEM medium with 5% horse serum, 10% FBSfor 24 h.
After incubation with compounds, 20 μl of 5 mg/ml MTT solution was added to each well and cultured at 37 °C for 2 h–4 h. Then, the culture medium was removed, and 150 μl dimethyl sulfoxide(DMSO) was added to each well for 15 min at room temperature. The absorbance of each well was measured at 570 nm using a microplate reader. The protective rates (PR) were calculated according to equation (1).

5-HT2C receptor = target: T1, 5-HT2C receptor (Homo sapiens, UniProt P28335); experiment: FLIPR assay for 5-HT2C antagonism; type: cell-based
T1 sequence (P28335 33-458): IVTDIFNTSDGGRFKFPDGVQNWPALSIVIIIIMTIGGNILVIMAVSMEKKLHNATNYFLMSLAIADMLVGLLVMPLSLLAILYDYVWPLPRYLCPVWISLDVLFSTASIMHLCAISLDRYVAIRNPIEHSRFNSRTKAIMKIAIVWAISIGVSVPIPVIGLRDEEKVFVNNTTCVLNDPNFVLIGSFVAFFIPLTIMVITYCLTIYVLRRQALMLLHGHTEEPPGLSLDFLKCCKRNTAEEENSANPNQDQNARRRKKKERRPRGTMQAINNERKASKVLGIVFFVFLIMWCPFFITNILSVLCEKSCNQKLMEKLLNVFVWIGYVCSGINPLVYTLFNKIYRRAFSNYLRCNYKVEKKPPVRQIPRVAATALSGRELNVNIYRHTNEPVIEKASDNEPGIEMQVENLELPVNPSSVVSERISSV
Protocol: Seed cells at the density of 10 K cell/well, 37 °C, 5% CO2 incubate for 16–24 hours, then loading cells with 30 ul of Calcium 5 and 37 °C, 5% CO2 incubate for 1 hour. After transfer compound to compound plate with 30 ul Assay Buffer by Echo, add 15 ul/well of compound, incubate for 10 mins.

Compound | inhibition at 100 µM (HEK293 cells) [%] | inhibition at 100 µM (L02 cells) [%] | PR (protection rate), Table S1 [1] | further results
COc1ccc2c(c1)C(CCNC(=O)c1ccc(C(F)(F)F)cc1)=NCC2 [6a-8, N-(2-(7-Methoxy-3,4-dihydroisoquinolin-1-yl)ethyl) -4-(trifluoromethyl) benzamideoxalate] | 38.4 | 60.6 | - | 
COc1ccc2c(c1)C(CCNC(=O)c1ccc(Cl)cc1)=NCC2 [6a-5, 4-Chloro-N-(2-(7-methoxy-3,4-dihydroisoquinolin-1-yl)ethyl) benzamideoxalate] | 60 | 67 | 4.1% | 
COc1ccc2c(c1)C(CCNC(=O)Nc1c(C)cc(C#N)cc1C)=NCC2.O=C(O)C(=O)O [6b-6, 1-(4-Cyano-2,6-dimethylphenyl)-3-(2-(7-methoxy-3,4-dihydroisoquinolin-1-yl)ethyl)urea oxalate] | < 20 | < 20 | - | 
CCC(=O)NCCC1=NCCc2ccc(OC)cc21.O=C(O)C(=O)O [6a-2, N-(2-(7-Methoxy-3,4-dihydroisoquinolin-1-yl)ethyl) propionamide oxalate] | 23.4 | 12.4 |  | PR (protection rate) ([1]; 5 μM): 3.1%; PR (protection rate) ([1]; […]): 18.1%
COc1ccc2c(c1)C(CCNC(=O)c1cccc(C)c1)=NCC2.O=C(O)C(=O)O [6a-22, N-(2-(7-Methoxy-3,4-dihydroisoquinolin-1-yl)ethyl)-3-methylbenzamide oxalate] | 22.2 | 31.8 | - | 
CC[C@@H](CO)NC(=O)[C@@H]1C=C2c3cccc4c3c(cn4C)C[C@H]2N(C)C1 [Methysergide] |  |  |  | IC50 (5-HT2C receptor): 0.025 µM; inhibition at 100 µM (5-HT2C receptor; read-out: Inhibition 5-HT2C): 101%
COc1ccc2c(c1)C(CCNC(=O)Cc1cc3ccccc3[nH]1)=NCC2.O=C(O)C(=O)O [6a-17, 2-(1H-Indol-2-yl)-N-(2-(7-methoxy-3,4-dihydroisoquinolin-1-yl)ethyl)acetamide oxalate] | 55.8 | 42.2 | - | 
1-(3,5-Dimethylpyridin-4-yl)-3-(2-(7-methoxy-3,4-dihydroisoquinolin-1-yl)ethyl)urea oxalate [6b-11] |  |  | - | IR (inhibitory rate) HEK293 (HEK293 cells): 28.1%; IR (inhibitory rate) L02 (L02 cells): 27.3%
COc1ccc2c(c1)C(CCNC(=O)c1cccnc1)=NCC2.O=C(O)C(=O)O [6a-23, N-(2-(7-Methoxy-3,4-dihydroisoquinolin-1-yl)ethyl)nicotinamide oxalate] | 57.8 | 66.9 | - | 
COc1ccc2c(c1)C(CCNC(=O)C(F)(F)F)=NCC2 [6a-3, 2,2,2-Trifluoro-N-(2-(7-methoxy-3,4-dihydroisoquinolin-1-yl)ethyl) acetamideoxalate] | 60.1 | 59.6 | -^b | 
COc1ccc2c(c1)C(CCNC(=O)NC1CC1)=NCC2.O=C(O)C(=O)O [6b-1, 1-Cyclopropyl-3-(2-(7-methoxy-3,4-dihydroisoquinolin-1-yl)ethyl)urea oxalate] | 19.5 | 27.2 | - | 
COc1ccc2c(c1)C(CCNC(=O)c1ccccc1Cl)=NCC2 [6a-7, 2-Chloro-N-(2-(7-methoxy-3,4-dihydroisoquinolin-1-yl)ethyl) benzamide oxalate] | 27.4 | 23.5 | - | 
COc1ccc2c(c1)C(CCNC(=O)c1ccc(F)cc1)=NCC2 [6a-12, 4-Fluoro-N-(2-(7-methoxy-3,4-dihydroisoquinolin-1-yl)ethyl) benzamide oxalate] | 43.8 | 19.1 | 0.7% | 
COc1ccc2c(c1)C(CCNC(=O)c1cc(Br)cnc1Cl)=NCC2.O=C(O)C(=O)O [6a-30, 5-Bromo-2-chloro-N-(2-(7-methoxy-3,4-dihydroisoquinolin-1-yl)ethyl)nicotinamide oxalate] | 49.1 | 47.5 | - | 
2-((2-(7-Methoxy-3,4-dihydroisoquinolin-1-yl)ethyl)carbamoyl)phenylacetate oxalate [6a-20] |  |  | - | IR (inhibitory rate) HEK293 (HEK293 cells): 57.1%; IR (inhibitory rate) L02 (L02 cells): 54.9%
4-Fluoro-N-(2-(7-methoxy-3,4-dihydroisoquinolin-1-yl)ethyl)benzamide oxalate [6a-33] |  |  | - | IR (inhibitory rate) HEK293 (HEK293 cells): 43.0%; IR (inhibitory rate) L02 (L02 cells): 45.2%
COc1ccc2c(c1)C(CCNC(=O)Nc1cccc(Cl)c1)=NCC2.O=C(O)C(=O)O [6b-2, 1-(3-Chlorophenyl)-3-(2-(7-methoxy-3,4-dihydroisoquinolin-1-yl)ethyl)urea oxalate] | 37.9 | 38.9 | - | 
COc1ccc2c(c1)C(CCNC(=O)c1ccco1)=NCC2 [6a-9, N-(2-(7-Methoxy-3,4-dihydroisoquinolin-1-yl)ethyl) furan-2-carboxamideoxalate] | 60.1 | 52.6 |  | PR (protection rate) ([1]; 5 μM): 7.9%; PR (protection rate) ([1]; […]): 14.9%
COc1ccc2c(c1)C(CCNC(=O)c1ccc(Br)nc1)=NCC2.O=C(O)C(=O)O [6a-31, 6-Bromo-N-(2-(7-methoxy-3,4-dihydroisoquinolin-1-yl)ethyl)nicotinamide oxalate] | 56.1 | 46.1 | 0.2% | 
COc1ccc(C(=O)NCCC2=NCCc3ccc(OC)cc32)c(OC)c1 [6a-15, 2,4-Dimethoxy-N-(2-(7-methoxy-3,4-dihydroisoquinolin-1-yl)ethyl) benzamide oxalate] | 56.1 | 49.5 | 3.7% | 
COc1ccc2c(c1)C(CCNC(=O)c1cc(Cl)ccc1Br)=NCC2.O=C(O)C(=O)O [6a-27, 2-Bromo-5-chloro-N-(2-(7-methoxy-3,4-dihydroisoquinolin-1-yl)ethyl)benzamide oxalate] | 51.8 | 45.9 | 10.1% | PR (protection rate) ([1]; 1.25 μM): above 10%
COc1ccc2c(c1)C(CCNC(=O)c1ccc(C(C)(C)C)cc1)=NCC2.O=C(O)C(=O)O [6a-18, 4-(tert-Butyl)-N-(2-(7-methoxy-3,4-dihydroisoquinolin-1-yl)ethyl)benzamide oxalate] | 53.3 | 63.2 | - | 
N-(2-(7-Methoxy-3,4-dihydroisoquinolin-1-yl)ethyl)-4-methylbenzamide oxalate [6a-32] |  |  | - | IR (inhibitory rate) HEK293 (HEK293 cells): 54.8%; IR (inhibitory rate) L02 (L02 cells): 43.2%
COc1ccc2c(c1)C(CCNC(=O)Nc1ccc(C#N)c(F)c1)=NCC2.O=C(O)C(=O)O [6b-7, 1-(4-Cyano-3-fluorophenyl)-3-(2-(7-methoxy-3,4-dihydroisoquinolin-1-yl)ethyl)urea oxalate] | 27.2 | 24.7 | - | 
COc1ccc2c(c1)C(CCNC(=O)Nc1ccc(Br)cn1)=NCC2.O=C(O)C(=O)O [6b-12, 1-(5-Bromopyridin-2-yl)-3-(2-(7-methoxy-3,4-dihydroisoquinolin-1-yl)ethyl)urea oxalate] | 49.4 | 48.1 | 16.3% | PR (protection rate) ([1]; 1.25 μM): above 10%
COc1ccc2c(c1)C(CCNC(=O)c1ccccn1)=NCC2.O=C(O)C(=O)O [6a-24, N-(2-(7-Methoxy-3,4-dihydroisoquinolin-1-yl)ethyl)picolinamide oxalate] | 62.9 | 55.8 | - | 
